We go through 10 molecules from patent publication US4201790A, “Benzophenone derivatives” (May & Baker Limited, priority 1975, dated 1980).

The test system of data set [1] is β-adrenoceptors in the heart. Briefly: Test I. β-Adrenoceptor blocking activity in the anaesthetised cat (intravenous), cardiac (isoprenaline tachycardia). It is filed as in vivo. The conditions noted are these: hydrochloride salts, isoprenaline 210 seconds after test compound. As to the method: (§1) Test I. β-Adrenoceptor blocking activity in the anaesthetised cat (intravenous administration).
(§2) Cats were anaesthetised with a mixture of pentobarbitone (6-12 mg./kg.) and chloralose suspension (80 mg./kg.) administered intraperitoneally. The heart rate was recorded from the E.C.G. or from the pulse, and blood pressure was recorded from the carotid artery. Whole (0.3-0.6 μg.) and half (0.15-0.3 μg.) doses of isoprenaline were then administered, intravenously via the jugular vein, alternately at 7 minute intervals over a period of several hours. 210 seconds after a half dose of isoprenaline, one of the compounds under test was administered intravenously. 210 seconds later the whole dose of isoprenaline was administered. The doses of the test compound required to reduce (1) the tachycardia and (2) the fall in diastolic blood pressure produced by the whole dose of isoprenaline to that produced by the half dose were determined. The former response gives a measure of the ability of the test compound to block β-adrenoceptors in the heart while the latter response gives a measure of the ability of the test compound to block the β-adrenoceptors mediating vasodilation.
(§3) Those hydrochloride salts of compounds A, G, H and J were dissolved in water and administered in aqueous solution. Compounds B, C, D, E, F and I were each dissolved in dilute aqueous hydrochloric acid solution (0.1 N) and the solution thus obtained was neutralised by treatment with aqueous sodium hydroxide solution (0.1 N), to give a neutral solution of the hydrochloride salt of the test compound suitable for administration.

The test system of data set [2] is β-adrenoceptors mediating vasodilation. Briefly: Test I. β-Adrenoceptor blocking activity in the anaesthetised cat (intravenous), vascular (isoprenaline fall in diastolic blood pressure). It is filed as in vivo. To be noted: for i.v. Dose Vascular (dose required to reduce fall in diastolic blood pressure produced by whole dose of isoprenaline to that produced by half dose): hydrochloride salts, isoprenaline 210 seconds after test compound; for Ratio cardiac dose / vascular dose: i.v. As to the method: as §1, §2, §3

Data set [3] is described as follows: Acute toxicity, mouse, oral. The conditions noted are these: in vivo.
Data set [4] is described as follows: Acute toxicity, mouse, intravenous. To be noted: in vivo, read-out: i.v. LD80.
Data set [5] concerns β-adrenoceptors in the heart. Briefly: Test II. β-Adrenoceptor blocking activity in the anaesthetised rhesus monkey (intravenous), cardiac. It is filed as in vivo. To be noted: i.v., hydrochloride salt. As to the method:
as §2
(§4) Test II. β-Adrenoceptor blocking activity in the anaesthetised rhesus monkey and in the anaesthetised dog (intravenous administration)
(§5) Test compound A (hydrochloride salt) was tested intravenously in anaesthetised rhesus monkeys and dogs by proceeding in a similar fashion to that described above in Test I.

In data set [6] the test system is β-adrenoceptors mediating vasodilation. The data set is described as follows: Test II. β-Adrenoceptor blocking activity in the anaesthetised rhesus monkey (intravenous), vascular. The conditions noted are these: i.v., hydrochloride salt. It is filed as in vivo. As to the method: as §2, §4, §5
The test system of data set [7] is β-adrenoceptors in the heart. Briefly: Test II. β-Adrenoceptor blocking activity in the anaesthetised dog (intravenous), cardiac. It is filed as in vivo. The conditions noted are these: i.v., hydrochloride salt. As to the method:
as §2, §4, §5

In data set [8] the test system is β-adrenoceptors mediating vasodilation. The data set is described as follows: Test II. β-Adrenoceptor blocking activity in the anaesthetised dog (intravenous), vascular. To be noted: i.v., hydrochloride salt. It is filed as in vivo. As to the method:
as §2, §4, §5

Data set [9] relates to β-adrenoceptors in the heart. Briefly: Test III. β-Adrenoceptor blocking activity in the anaesthetised dog (oral), cardiac. It is filed as in vivo. To be noted: hydrochloride salt. As to the method: as §2
(§6) Test III. β-Adrenoceptor blocking activity in the anaesthetised dog (oral administration)
(§7) Test compound A(hydrochloride salt) was tested orally in anaesthetised dogs by proceeding in a similar fashion to that described above in Test I and Test II. The results are expressed below in Table III.

The subject of data set [10] is β-adrenoceptors mediating vasodilation. The data set is described as follows: Test III. β-Adrenoceptor blocking activity in the anaesthetised dog (oral), vascular. The conditions noted are these: hydrochloride salt. It is filed as in vivo. The method, then:
as §2, §6, §7

Data set [11] is described as follows: Toxicity, rat, oral, two weeks. It is filed as in vivo. The conditions noted are these: oral daily doses of 12, 24, 48 or 96 mg./kg. during two weeks.
The nature of data set [12]: Toxicity, dog, oral, two weeks. It is filed as in vivo, dog (beagle). The conditions noted are these: beagles, oral daily doses of 10, 50 or 100 mg./kg. during two weeks. The method, then:
Two groups, each of two males and two females, each received a daily dose of 10 or 50 mg./kg. animal body weight and one group, of one male and one female, received a daily dose of 100 mg./kg. animal body weight.

Some results are limits rather than exact numbers.

As to `Cc1ccc(C(=O)c2c(C)cc(C)cc2OCC(O)CNC(C)C)cc1` (racemic) [B, DL-1-(3,5-dimethyl-2-p-toluoylphenoxy)-2-hydroxy-3-isopropylaminopropane], the “i.v. Dose Cardiac (dose required to reduce tachycardia produced by whole dose of isoprenaline to that produced by half dose)” value in data set [1] is listed as 2.9 mg./kg. animal body weight. In data set [2], the “i.v. Dose Vascular (dose required to reduce fall in diastolic blood pressure produced by whole dose of isoprenaline to that produced by half dose)” value was 0.031 mg./kg. animal body weight and the “Ratio cardiac dose / vascular dose” value is listed as 93.5. The same molecule registered an LD50 in data set [3] of approximately 1000 mg/kg. Besides, the LD50 in [4] was in the range of 25 to 31 mg/kg.

`Cc1cc(C)c(C(=O)c2ccccc2)c(OCC(O)CNC(C)C)c1` (racemic) [Compound A, DL-1-(2-benzoyl-3,5-dimethylphenoxy)-2-hydroxy-3-isopropylaminopropane]: the “i.v. Dose Cardiac (dose required to reduce tachycardia produced by whole dose of isoprenaline to that produced by half dose)” value in [1] is on record as 1.1 mg./kg. animal body weight. Further, in data set [2], the “i.v. Dose Vascular (dose required to reduce fall in diastolic blood pressure produced by whole dose of isoprenaline to that produced by half dose)” value was 0.023 mg./kg. animal body weight. For the same molecule, the “Ratio cardiac dose / vascular dose” value in data set [2] is listed as 48. The Dose cardiac in [5] (210 second interval after dose) is listed as 0.1 mg./kg. animal body weight; in data set [5] (one hour interval after dose) it was > 1 mg./kg. animal body weight; in data set [7] (210 second interval after dose), 0.1 mg./kg. animal body weight; in [7] (one hour interval after dose), 0.13 mg./kg. animal body weight. The Dose vascular in [6] (210 second interval after dose) is 0.0087 mg./kg. animal body weight; in data set [6] (one hour interval after dose), 0.0076 mg./kg. animal body weight; in [8] (210 second interval after dose) it was < 0.02 mg./kg. animal body weight; in [8] (one hour interval after dose), < 0.02 mg./kg. animal body weight. Further, the Oral dose cardiac in data set [9] (1 hour after dose) was 4 mg./kg. animal body weight; in [9] (2 hours after dose), 3.2 mg./kg. animal body weight; in data set [9] (3 hours after dose), 6 mg./kg. animal body weight. Moreover, the Oral dose vascular is recorded as < 0.1 mg./kg. animal body weight in [10] (1 hour after dose), 0.08 mg./kg. animal body weight in [10] (2 hours after dose) and 0.1 mg./kg. animal body weight in data set [10] (3 hours after dose). The LD50 in data set [4] was 40 mg/kg. Further, the tolerability entry in data set [11] and in data set [12] was “well tolerated” each time.

On to `Cc1cc(C)c(C(=O)c2ccccc2)c(OCC(O)CNC(C)C)c1C` (racemic) [Compound C, DL-1-(2-benzoyl-3,5,6-trimethylphenoxy)-2-hydroxy-3-isopropylaminopropane], for which the “i.v. Dose Cardiac (dose required to reduce tachycardia produced by whole dose of isoprenaline to that produced by half dose)” value in [1] is 4.4 mg./kg. animal body weight. In [2], the “i.v. Dose Vascular (dose required to reduce fall in diastolic blood pressure produced by whole dose of isoprenaline to that produced by half dose)” value is 2.3 mg./kg. animal body weight and the “Ratio cardiac dose / vascular dose” value was found to be 1.9. For the same molecule, the LD50 in [4] stood at 23 mg/kg.

For the molecule `Cc1ccc(C(=O)c2c(C)cc(C)cc2OCC(O)CNC(C)(C)C)cc1` (racemic) [Compound I, DL-1-t-butylamino-3-(3,5-dimethyl-2-p-toluoylphenoxy)-2-hydroxypropane], in data set [1], the “i.v. Dose Cardiac (dose required to reduce tachycardia produced by whole dose of isoprenaline to that produced by half dose)” value is 0.46 mg./kg. animal body weight. Also, in data set [2], the “i.v. Dose Vascular (dose required to reduce fall in diastolic blood pressure produced by whole dose of isoprenaline to that produced by half dose)” value is 0.027 mg./kg. animal body weight and the “Ratio cardiac dose / vascular dose” value is on record as 17. Further, the LD50 in [4] turned out to be 24 mg/kg.

With `Cc1ccc(C(=O)c2c(C)cc(C)cc2OCC(O)CNCCc2ccccc2)cc1` (racemic) [Compound J, DL-1-(3,5-dimethyl-2-p-toluoylphenoxy)-2-hydroxy-3-(2-phenylethylamino)propane], the “i.v. Dose Cardiac (dose required to reduce tachycardia produced by whole dose of isoprenaline to that produced by half dose)” value in data set [1] was ~2.0 mg./kg. animal body weight. For the same molecule, in data set [2], the “i.v. Dose Vascular (dose required to reduce fall in diastolic blood pressure produced by whole dose of isoprenaline to that produced by half dose)” value was 0.068 mg./kg. animal body weight and the “Ratio cardiac dose / vascular dose” value was 29.

Take `Cc1cc(C)c(C(=O)c2ccccc2C)c(OCC(O)CNC(C)C)c1` (racemic) [D, DL-1-(3,5-dimethyl-2-o-toluoylphenoxy)-2-hydroxy-3-isopropylaminopropane]: the “i.v. Dose Cardiac (dose required to reduce tachycardia produced by whole dose of isoprenaline to that produced by half dose)” value in data set [1] is 0.8 mg./kg. animal body weight. Besides, in data set [2], the “i.v. Dose Vascular (dose required to reduce fall in diastolic blood pressure produced by whole dose of isoprenaline to that produced by half dose)” value is recorded as 0.16 mg./kg. animal body weight and the “Ratio cardiac dose / vascular dose” value came to 5.0. Further, the LD50 in [4] was 34 mg/kg.

As for `Cc1cc(C)c(C(=O)c2c(C)cccc2C)c(OCC(O)CNC(C)C)c1` (racemic) [E, DL-1-[2-(2,6-dimethylbenzoyl)-3,5-dimethylphenoxy]-2-hydroxy-3-isopropylaminopropane], the “i.v. Dose Cardiac (dose required to reduce tachycardia produced by whole dose of isoprenaline to that produced by half dose)” value in data set [1] is 3.7 mg./kg. animal body weight. Moreover, in data set [2], the “i.v. Dose Vascular (dose required to reduce fall in diastolic blood pressure produced by whole dose of isoprenaline to that produced by half dose)” value is 1.8 mg./kg. animal body weight and the “Ratio cardiac dose / vascular dose” value worked out at 2.1. Also, the LD50 in data set [4] was determined as 42 mg/kg.

With `Cc1ccc(C(=O)c2c(C)cc(C)cc2OCC(O)CNC(C)C)c(C)c1` (racemic) [F, DL-1-[2-(2,4-dimethylbenzoyl)-3,5-dimethylphenoxy]-2-hydroxy-3-isopropylaminopropane], in data set [1], the “i.v. Dose Cardiac (dose required to reduce tachycardia produced by whole dose of isoprenaline to that produced by half dose)” value is 0.59 mg./kg. animal body weight. Moreover, in [2], the “i.v. Dose Vascular (dose required to reduce fall in diastolic blood pressure produced by whole dose of isoprenaline to that produced by half dose)” value is on record as 0.24 mg./kg. animal body weight and the “Ratio cardiac dose / vascular dose” value worked out at 2.5. In data set [4], the LD50 was 24 mg/kg.

Consider `Cc1ccc(C)c(C(=O)c2ccccc2)c1OCC(O)CNC(C)C` (racemic) [G, DL-1-(2-benzoyl-3,6-dimethylphenoxy)-2-hydroxy-3-isopropylaminopropane], for which the “i.v. Dose Cardiac (dose required to reduce tachycardia produced by whole dose of isoprenaline to that produced by half dose)” value in data set [1] is 7.1 mg./kg. animal body weight. In addition, in data set [2], the “i.v. Dose Vascular (dose required to reduce fall in diastolic blood pressure produced by whole dose of isoprenaline to that produced by half dose)” value is recorded as 4.2 mg./kg. animal body weight and the “Ratio cardiac dose / vascular dose” value is listed as 1.7.

`Cc1cc(C)c(C(=O)c2ccc(Cl)cc2)c(OCC(O)CNC(C)C)c1` (racemic) [H, DL-1-(2-p-chlorobenzoyl-3,5-dimethylphenoxy)-2-hydroxy-3-isopropylaminopropane]: the “i.v. Dose Cardiac (dose required to reduce tachycardia produced by whole dose of isoprenaline to that produced by half dose)” value in [1] was 0.72 mg./kg. animal body weight. Moreover, in [2], the “i.v. Dose Vascular (dose required to reduce fall in diastolic blood pressure produced by whole dose of isoprenaline to that produced by half dose)” value is given as 0.037 mg./kg. animal body weight and the “Ratio cardiac dose / vascular dose” value is given as 19. For the same molecule, the LD50 in [4] was 32 to 40 mg/kg.
